Peptide text beside a SMILES is read from it. * marks the point of attachment. Decanoyl = CCCCCCCCCC(=O)*; CH2Cl = ClC*
Biological target: cathepsin B (Homo sapiens, UniProt P07858)
Assay: Cathepsin B activity assay
Assay type: biochemical
Settings: cathepsin B, N = 3
Procedure: Fig 3 Comparison of QUB-F1 and furin I versus cathepsin B. Cathepsin B activity was assessed in the presence or absence of various concentrations of QUB-F1 or furin I (N = 3). Data represent mean ± s.e.m.

**Q.** Which IC50 does the source give for `CCCCCCCCCC(=O)N[C@@H](CCCNC(=N)N)C(=O)N[C@H](C(=O)N[C@@H](CCCCN)C(=O)N[C@@H](CCCNC(=N)N)C(=O)CCl)C(C)C` [furin I, Decanoyl-RVKR-chloromethylketone (CMK), reference compound] (Decanoyl-RVKR-CH2Cl) here?
**A.** Its IC50 is 56 nM.
